Results from patent US9242929B2, “Compounds as diacylglycerol acyltransferase inhibitors” (GlaxoSmithKline Intellectual Property (No.2) Limited, priority 2011, dated 2016).

Molecular target: T1, Human DGAT1 (Homo sapiens, UniProt O75907)
T1 construct: made in house; host or cells: Sf9 insect cells (baculovirus), microsomes
T1 sequence (O75907 1-488): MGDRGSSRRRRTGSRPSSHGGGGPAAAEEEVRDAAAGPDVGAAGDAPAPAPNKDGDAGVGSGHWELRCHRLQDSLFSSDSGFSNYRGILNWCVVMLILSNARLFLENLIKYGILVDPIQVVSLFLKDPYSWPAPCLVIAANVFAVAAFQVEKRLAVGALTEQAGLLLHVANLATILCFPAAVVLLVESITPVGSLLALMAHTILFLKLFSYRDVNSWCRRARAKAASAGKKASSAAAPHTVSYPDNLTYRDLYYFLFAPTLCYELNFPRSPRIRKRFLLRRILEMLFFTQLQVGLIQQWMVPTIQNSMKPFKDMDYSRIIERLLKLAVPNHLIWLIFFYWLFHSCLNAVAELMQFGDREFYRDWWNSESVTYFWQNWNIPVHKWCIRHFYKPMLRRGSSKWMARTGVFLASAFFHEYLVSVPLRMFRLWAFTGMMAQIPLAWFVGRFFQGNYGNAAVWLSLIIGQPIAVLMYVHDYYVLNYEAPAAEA
Experiment: human DGAT1 fluorescence (CPM) assay, inhibition of CoA product formation
Type: biochemical
Settings: human DGAT1 fluorescene (CPM) assay; microsomes from Sf9 insect cells; read-out: hDGAT IC50
Method: Human DGAT1 was expressed in Sf9 insect cells using a baculovirus expression system. Microsomes were prepared and used as enzyme for in vitro inhibition testing in either of two formats measuring production of coenzyme A or tridecanoylglycerol product, respectively. All steps were performed at 21-23° C. All data for DGAT1 inhibition by test compounds were collected under conditions where product formation was linear with reaction time.
An equal volume (10 uL) of 3× enzyme in buffer was added and the components incubated for 30 minutes pre-reaction incubation to allow enzyme and test compounds to attain binding equilibrium. […] Some assays were performed with inclusion of didecanoylglycerol in the pre-reaction incubation of test compound and enzyme. DGAT reactions (30 uL) were initiated upon addition of 10 uL of 3× substrate solution. Final reaction conditions consisted of 20 mM HEPES pH 7.5, 2 mM MgCl2, 1 mM CHAPS, 50 uM didecanoylglycerol, 3 uM decanoyl-CoA, 1 ug/mL microsomal protein, and 1% DMSO. Following a 60 minute reaction incubation, reactions were stopped and CoA product derivatized with 30 uL of buffer containing 10 uM {4-[4-(4-amino-7,7-dimethyl-7H-pyrimido[4,5-b][1,4]oxazin-6-yl)phenyl]cyclohexyl}acetic acid and 50 uM 7-diethylamino-3-(4′-maleimidylphenyl)-4-methylcoumarin (CPM). […] IC50s were fitted using GraphPad Prism to a sigmoidal dose response.

Row | SMILES | IC50 [nM]
1 | O=C(O)CN1CCc2cc(-c3ccc(NC(=O)Nc4cccc(C(F)(F)F)c4)cc3)ccc2C1=O [Example 1, 2-{1-oxo-6-[4-({[3-(trifluoromethyl)phenyl]carbamoyl}amino)phenyl]-1,2,3,4-tetrahydroisoquinolin-2-yl}acetic acid] | 1880
2 | CCc1ccc(NC(=O)Nc2cnc(-c3ccc4c(c3)CCC(CC(=O)O)(CC(F)(F)F)C4=O)cn2)cc1 (centres unmarked) [Example 220] | 0.3
3 | O=C(O)CC1CCc2cc(-c3ccc(NC(=O)Nc4cccc(C(F)(F)F)c4)cc3)ccc2C1=O (centres unmarked) [Example 47, 2-{1-oxo-6-[4-({[3-(trifluoromethyl)phenyl]carbamoyl}amino)phenyl]-1,2,3,4-tetrahydronaphthalen-2-yl}acetic acid] | 181
4 | COC1(CC(=O)O)CCc2cc(-c3ccc(NC(=O)Nc4ccccc4)cc3)ccc2C1=O (centres unmarked) [Example 190, 2-(2-methoxy-1-oxo-6-{4-[(phenylcarbamoyl)amino]phenyl}-1,2,3,4-tetrahydronaphthalen-2-yl)acetic acid] | 67.6
5 | O=C(O)CC1(CC(F)(F)F)CCc2cc(-c3ccc(NC(=O)Nc4cc(Cl)cc(Cl)c4)cc3)ccc2C1=O (centres unmarked) [Example 224] | 2.8
6 | O=C(O)CC1CCc2cc(-c3ccc(NC(=O)Nc4ccc(F)c(C(F)(F)F)c4)cc3)ccc2C1 (centres unmarked) [Example 20] | 586
7 | O=C(O)CCC1CCc2cc(-c3ccc(NC(=O)Nc4cccc(C(F)(F)F)c4)cc3)ccc2C1=O (centres unmarked) [Example 69, 3-{1-oxo-6-[4-({[3-(trifluoromethyl)phenyl]carbamoyl}amino)phenyl]-1,2,3,4-tetrahydronaphthalen-2-yl}propanoic acid] | 114
8 | COC1(CC(=O)O)CCc2cc(-c3ccc(NC(=O)Nc4cccc(C(F)(F)F)c4)cc3)ccc2C1=O (single isomer, unassigned) [Example 228] | 6.9
9 | CC1(CC(=O)O)CCc2cc(-c3ccc(NC(=O)Nc4cccc(Cl)c4)c(F)c3)ccc2C1=O (centres unmarked) [Example 90] | 12
10 | CCC1(CC(=O)O)CCc2cc(-c3ccc(NC(=O)Nc4cccc(Cl)c4)c(F)c3)ccc2C1=O (centres unmarked) [Example 144] | 5.8
11 | O=C(O)CC1(CC(F)(F)F)CCc2cc(-c3cnc(NC(=O)NC4CCC4)cn3)ccc2C1=O (centres unmarked) [Example 230] | 27.5
12 | O=C(O)CC1(CC(F)(F)F)CCc2cc(-c3ccc(NC(=O)NC4CCCCC4)cc3)ccc2C1=O (centres unmarked) [Example 226] | 6.1
13 | CCC1(CC(=O)O)Cc2cc(-c3ccc(NC(=O)Nc4cccc(C(F)(F)F)c4)cc3)ccc2C1=O (centres unmarked) [Example 42, 2-{2-ethyl-1-oxo-5-[4-({[3-(trifluoromethyl)phenyl]carbamoyl}amino)phenyl]-2,3-dihydro-1H-inden-2-yl}acetic acid] | 60
14 | O=C(O)CC1(F)CCc2cc(-c3ccc(NC(=O)Nc4cccc(C(F)(F)F)c4)cc3)ccc2C1=O (centres unmarked) [Example 182, 2-{2-fluoro-1-oxo-6-[4-({[3-(trifluoromethyl)phenyl]carbamoyl}amino)phenyl]-1,2,3,4-tetrahydronaphthalen-2-yl}acetic acid] | 48
15 | COCC1(CC(=O)O)CCc2cc(-c3ccc(NC(=O)Nc4cccc(C(F)(F)F)c4)cc3)ccc2C1=O (centres unmarked) [Example 197, 2-[2-(methoxymethyl)-1-oxo-6-[4-({[3-(trifluoromethyl)phenyl]carbamoyl}amino)phenyl]-1,2,3,4-tetrahydronaphthalen-2-yl]acetic acid] | 2.3
16 | O=C(O)CC1(CC(F)(F)F)CCc2cc(-c3ccc(NC(=O)Nc4ccccc4)cc3)ccc2C1O (centres unmarked) [Example 202] | 6.5
17 | CCC1(CC(=O)O)CCc2cc(-c3ccc(NC(=O)Nc4ccccc4)cc3Cl)ccc2C1=O (centres unmarked) [Example 140] | 31.8
18 | O=C(O)CC1CCc2cc(-c3ccc(NC(=O)Nc4cccc(C(F)(F)F)c4)cc3)ccc2C1O (centres unmarked) [Example 68, 2-{1-hydroxy-6-[4-({[3-(trifluoromethyl)phenyl]carbamoyl}amino)phenyl]-1,2,3,4-tetrahydronaphthalen-2-yl}acetic acid] | 503
19 | COC1(CC(=O)O)CCc2cc(-c3ccc(NC(=O)Nc4cccc(Cl)c4)cc3)ccc2C1=O (centres unmarked) [Example 192] | 10.6

Row | SMILES | IC50 [nM]
20 | O=C(O)CC1(CC(F)(F)F)CCc2cc(-c3cnc(NC(=O)Nc4ccc(F)c(F)c4)cn3)ccc2C1=O (centres unmarked) [Example 215, 2-(6-(5-(3-(3,4-Difluorophenyl)ureido)pyrazin-2-yl)-1-oxo-2-(2,2,2-trifluoroethyl)-1,2,3,4-tetrahydronaphthalen-2-yl)acetic acid] | 1.8
21 | CC1(CC(=O)O)CCc2cc(-c3ccc(NC(=O)Nc4cccc(C(F)(F)F)c4)cn3)ccc2C1=O (centres unmarked) [Example 109] | 14.2
22 | CC[C@@]1(CC(=O)O)CCc2cc(-c3ccc(NC(=O)Nc4cccc(C(F)(F)F)c4)cc3)ccc2[C@@H]1O (relative stereo) [Example 173, rel-2-[(1R,2S)-2-ethyl-1-hydroxy-6-[4-({[3-(trifluoromethyl)phenyl]carbamoyl}amino)phenyl]-1,2,3,4-tetrahydronaphthalen-2-yl]acetic acid] | 10.8
23 | O=C(O)CC1(CC(F)(F)F)CCc2cc(-c3ccc(NC(=O)Nc4cccc(Cl)c4)cc3)ccc2C1=O (centres unmarked) [Example 205] | 3.5
24 | O=C(O)CC1(CO)CCc2cc(-c3ccc(NC(=O)Nc4cccc(Cl)c4)c(F)c3)ccc2C1=O (centres unmarked) [Example 198, 2-(6-(4-(3-(3-Chlorophenyl)ureido)-3-fluorophenyl)-2-(hydroxymethyl)-1-oxo-1,2,3,4-tetrahydronaphthalen-2-yl)acetic acid] | 55
25 | CCC1(CC(=O)O)CCc2cc(-c3cnc(NC(=O)Nc4ccccc4)cn3)ccc2C1=O (centres unmarked) [Example 154] | 47.8
26 | CCC1(CC(=O)O)CCc2cc(-c3ccc(NC(=O)Nc4cccc(Cl)c4)cc3Cl)ccc2C1=O (single isomer, unassigned) [Example 213, 2-(6-(2-Chloro-4-(3-(3-chlorophenyl)ureido)phenyl)-2-ethyl-1-oxo-1,2,3,4-tetrahydronaphthalen-2-yl)acetic acid] | 5.9
27 | O=C(O)CC1(CC(F)(F)F)CCc2cc(-c3cnc(NC(=O)Nc4cccc(Cl)c4)cn3)ccc2C1=O (centres unmarked) [Example 223] | 0.7
28 | CCc1ccc(NC(=O)Nc2ccc(-c3ccc4c(c3)CCC(CC(=O)O)(CC(F)(F)F)C4=O)cc2)cc1 (centres unmarked) [Example 225] | 1.2
29 | CCC1(CC(=O)O)CCc2cc(-c3ccc(NC(=O)Nc4ccccc4)c(F)c3)ccc2C1=O (centres unmarked) [Example 141] | 9.4
30 | CCC1(CC(=O)O)CCc2cc(-c3ccc(NC(=O)Nc4cccc(C(F)(F)F)c4)c(F)c3)ccc2C1=O (centres unmarked) [Example 143] | 11.2
31 | COC1(CC(=O)O)CCc2cc(-c3ccc(NC(=O)Nc4cccc(Cl)c4)cc3)ccc2C1=O (centres unmarked) [Example 229] | 5.2
32 | CCC1(CC(=O)O)CCc2cc(-c3ccc(NC(=O)Nc4cccc(Cl)c4)cc3Cl)ccc2C1=O (centres unmarked) [Example 139] | 10.8
33 | CC1(CC(=O)O)CCc2cc(-c3ccc(NC(=O)Nc4cccc(Cl)c4)cc3Cl)ccc2C1=O (single isomer, unassigned) [Example 212, 2-(6-(2-chloro-4-(3-(3-chlorophenyl)ureido)phenyl)-2-methyl-1-oxo-1,2,3,4-tetrahydronaphthalen-2-yl)acetic acid] | 32.8
34 | O=C(O)CC1(CC(F)(F)F)CCc2cc(-c3cnc(NC(=O)NC4CCCCC4)cn3)ccc2C1=O (single isomer, unassigned) [Example 216, 2-(6-(5-(3-cyclohexylureido)pyrazin-2-yl)-1-oxo-2-(2,2,2-trifluoroethyl)-1,2,3,4-tetrahydronaphthalen-2-yl)acetic acid] | 2.7
35 | CC[C@@]1(CC(=O)O)CCc2cc(-c3ccc(NC(=O)Nc4cccc(Cl)c4)cn3)ccc2C1=O [Example 164] | 4.5
36 | O=C(O)CC1(CC(F)(F)F)CCc2cc(-c3ccc(NC(=O)Nc4cccc(Cl)c4)cc3)ccc2C1=O (single isomer, unassigned) [Example 214, 2-(6-(4-(3-(3-Chlorophenyl)ureido)phenyl)-1-oxo-2-(2,2,2-trifluoroethyl)-1,2,3,4-tetrahydronaphthalen-2-yl)acetic acid] | 0.6
37 | CC(C)(C(=O)O)C1CCc2cc(-c3ccc(NC(=O)Nc4cccc(C(F)(F)F)c4)cc3)ccc2C1=O (centres unmarked) [Example 76, 2-methyl-2-{1-oxo-6-[4-({[3-(trifluoromethyl)phenyl]carbamoyl}amino)phenyl]-1,2,3,4-tetrahydronaphthalen-2-yl}propanoic acid] | 112
38 | CCC(CC)NC(=O)Nc1cnc(-c2ccc3c(c2)CCC(CC(=O)O)(CC(F)(F)F)C3=O)cn1 (centres unmarked) [Example 219] | 5960
